From ChEMBL document CHEMBL3808305, “Discovery of fused tricyclic core containing HCV NS5A inhibitors with pan-genotype activity” (Bioorg Med Chem Lett, 2016)

What was measured:
[1] = Half life in Sprague-Dawley rat at 10 mg/kg, po or 2 mg/kg, iv; assay type: ADME, organism-based; conditions: in vivo
[2] = AUC in Sprague-Dawley rat at 10 mg/kg, po; assay type: ADME, organism-based; conditions: in vivo
Hepatitis C virus [3] = test: Antiviral activity against HCV genotype 1b assessed as decrease in HCV replicon RNA replication after 3 days by taqman assay based cell based replicon method; assay type: functional, organism-based, Hepacivirus hominis; conditions: 72 h
Hepatitis C virus [4] = test: Antiviral activity against HCV genotype 2a assessed as decrease in HCV replicon RNA replication after 3 days by taqman assay based cell based replicon method; assay type: functional, organism-based, Hepacivirus hominis; conditions: 72 h
[5] = Clearance in Sprague-Dawley rat at 10 mg/kg, po or 2 mg/kg, iv; assay type: ADME, organism-based; conditions: in vivo
Hepatitis C virus [6] = test: Antiviral activity against HCV genotype 1a assessed as decrease in HCV replicon RNA replication after 3 days by taqman assay based cell based replicon method; assay type: functional, organism-based, Hepacivirus hominis; conditions: subtype 1a, 72 h
Hepatitis C virus [7] = test: Antiviral activity against HCV genotype 3a assessed as decrease in HCV replicon RNA replication after 3 days by taqman assay based cell based replicon method; assay type: functional, organism-based, Hepacivirus hominis; conditions: 72 h
Hepatitis C virus [8] = test: Antiviral activity against HCV genotype 1a expressing NS5A Y93H mutant assessed as decrease in HCV replicon RNA replication after 3 days by taqman assay based cell based replicon method; assay type: functional, organism-based, Hepacivirus hominis; conditions: subtype 1a, 72 h
[9] = Oral bioavailability in Sprague-Dawley rat at 10 mg/kg; assay type: ADME, organism-based; conditions: in vivo
Hepatitis C virus [10] = test: Antiviral activity against HCV genotype 1a assessed as decrease in HCV replicon RNA replication after 3 days in presence of 10% FBS by taqman assay based cell based replicon method; assay type: functional, organism-based, Hepacivirus hominis; conditions: subtype 1a, 72 h
Hepatitis C virus [11] = test: Antiviral activity against HCV genotype 1b assessed as decrease in HCV replicon RNA replication after 3 days in presence of 10% FBS by taqman assay based cell based replicon method; assay type: functional, organism-based, Hepacivirus hominis; conditions: 72 h
Hepatitis C virus [12] = test: Antiviral activity against HCV genotype 2a assessed as decrease in HCV replicon RNA replication after 3 days in presence of 10% FBS by taqman assay based cell based replicon method; assay type: functional, organism-based, Hepacivirus hominis; conditions: 72 h
Hepatitis C virus [13] = test: Antiviral activity against HCV genotype 3a assessed as decrease in HCV replicon RNA replication after 3 days in presence of 10% FBS by taqman assay based cell based replicon method; assay type: functional, organism-based, Hepacivirus hominis; conditions: 72 h
Hepatitis C virus [14] = test: Antiviral activity against HCV genotype 1a expressing NS5A Y93H mutant assessed as decrease in HCV replicon RNA replication after 3 days in presence of 10% FBS by taqman assay based cell based replicon method; assay type: functional, organism-based, Hepacivirus hominis; conditions: subtype 1a, 72 h
[15] = Oral bioavailability in Sprague-Dawley rat at 5 mg/kg; assay type: ADME, organism-based; conditions: in vivo
[16] = Half life in Sprague-Dawley rat at 5 mg/kg, po or 2 mg/kg, iv; assay type: ADME, organism-based; conditions: in vivo
[17] = AUC in Sprague-Dawley rat at 5 mg/kg, po; assay type: ADME, organism-based; conditions: in vivo
[18] = Clearance in Sprague-Dawley rat at 5 mg/kg, po or 2 mg/kg, iv; assay type: ADME, organism-based; conditions: in vivo
Hepatitis C virus [19] = test: Antiviral activity against HCV genotype 2a JFH assessed as decrease in HCV replicon RNA replication by taqman assay based cell based replicon method; assay type: functional, organism-based, Hepacivirus hominis; conditions: subtype 2a JFH
Hepatitis C virus [20] = test: Antiviral activity against HCV genotype 1a H77 infected in mouse HB1 cells assessed as decrease in HCV replicon RNA replication after 3 days by taqman assay; assay type: functional, organism-based, Hepacivirus hominis; conditions: genotype 1a H77, HB1, 72 h
Hepatitis C virus [21] = test: Antiviral activity against HCV genotype 1a H77 expressing NS5A Y93H mutant infected in mouse HB1 cells assessed as decrease in HCV replicon RNA replication by taqman assay; assay type: functional, organism-based, Hepacivirus hominis; conditions: genotype 1a H77, HB1
Hepatitis C virus [22] = test: Antiviral activity against HCV genotype 3a NC009824 assessed as decrease in HCV replicon RNA replication by taqman assay based cell based replicon method; assay type: functional, organism-based, Hepacivirus hominis
Hepatitis C virus [23] = test: Antiviral activity against HCV genotype 1b Con1 assessed as decrease in HCV replicon RNA replication by taqman assay based cell based replicon method; assay type: functional, organism-based, Hepacivirus hominis; conditions: isolate Con1

Structure (SMILES)	EC50 (Hepatitis C virus [3]) [nM]	EC50 (Hepatitis C virus [4]) [nM]	EC50 (Hepatitis C virus [6]) [nM]	EC50 (Hepatitis C virus [7]) [nM]	EC50 (Hepatitis C virus [8]) [nM]	other results
COC(=O)N[C@H](C(=O)N1CCC[C@H]1c1ncc(-c2ccc3cc4cc(-c5cnc([C@@H]6CCCN6C(=O)[C@@H](NC(=O)OC)C(C)C)[nH]5)ccc4cc3c2)[nH]1)C(C)C	0.001	0.005	0.006	0.06	87	half-life [1]: 3 h; AUC [2]: 13 µM·h; clearance [5]: 7.7 mL/min/kg; bioavailability [9]: 46%
COC(=O)N[C@H](C(=O)N1CCC[C@H]1c1ncc(-c2ccc3c(=O)c4cc(-c5cnc([C@@H]6CCCN6C(=O)[C@@H](NC(=O)OC)C(C)C)[nH]5)ccc4oc3c2)[nH]1)C(C)C	0.002	0.1	0.01		1730	
COC(=O)N[C@H](C(=O)N1CCC[C@H]1c1ncc(-c2ccc3c(c2)NC(=O)c2ccc(-c4cnc([C@@H]5CCCN5C(=O)[C@@H](NC(=O)OC)C(C)C)[nH]4)cc2O3)[nH]1)C(C)C						EC50 (Hepatitis C virus [10]): 145 nM; EC50 (Hepatitis C virus [11]): 0.2 nM; EC50 (Hepatitis C virus [12]): 310 nM
COC(=O)N[C@H](C(=O)N1CCC[C@H]1c1ncc(-c2ccc3c(C)c4cc(-c5cnc([C@@H]6CCCN6C(=O)[C@@H](NC(=O)OC)C(C)C)[nH]5)ccc4cc3c2)[nH]1)C(C)C	0.005	0.005	0.02	0.5	42	
COC(=O)N[C@H](C(=O)N1CCC[C@H]1c1ncc(-c2ccc3c(c2)Oc2ccc(-c4cnc([C@@H]5CCCN5C(=O)[C@@H](NC(=O)OC)C(C)C)[nH]4)cc2C3C2CC2)[nH]1)C(C)C (stereo partly drawn)						EC50 (Hepatitis C virus [13]): 0.2 nM; EC50 (Hepatitis C virus [10]): 0.03 nM; EC50 (Hepatitis C virus [14]): 46 nM; EC50 (Hepatitis C virus [11]): 0.004 nM; EC50 (Hepatitis C virus [12]): 0.004 nM
COC(=O)N[C@H](C(=O)N1CCC[C@H]1c1ncc(-c2ccc3c(c2)C=Nc2cc(-c4cnc([C@@H]5CCCN5C(=O)[C@@H](NC(=O)OC)C(C)C)[nH]4)ccc2O3)[nH]1)C(C)C						EC50 (Hepatitis C virus [10]): 40 nM; EC50 (Hepatitis C virus [11]): 0.5 nM; EC50 (Hepatitis C virus [12]): 55 nM
COC(=O)N[C@H](C(=O)N1CCC[C@H]1c1ncc(-c2ccc3c(c2)Oc2ccc(-c4cnc([C@@H]5CCCN5C(=O)[C@@H](NC(=O)OC)C(C)C)[nH]4)cc2O3)[nH]1)C(C)C	0.009	0.01	0.01		16	bioavailability [15]: 26%; half-life [16]: 1.4 h; AUC [17]: 4.5 µM·h; clearance [18]: 6.4 mL/min/kg
COC(=O)N[C@H](C(=O)N1CCC[C@H]1c1ncc(-c2ccc3c(Cl)c4cc(-c5cnc([C@@H]6CCCN6C(=O)[C@@H](NC(=O)OC)C(C)C)[nH]5)ccc4cc3c2)[nH]1)C(C)C	0.003	0.01	0.05	0.6	66	
COC(=O)N[C@H](C(=O)N1CCC[C@H]1c1ncc(-c2ccc3c(c2)Oc2ccc(-c4cnc([C@@H]5CCCN5C(=O)[C@@H](NC(=O)OC)C(C)C)[nH]4)cc2C3C)[nH]1)C(C)C (stereo partly drawn)	0.009	0.004	0.05	0.08		
COC(=O)N[C@H](C(=O)N1CCC[C@H]1c1ncc(-c2ccc3c(c2)Oc2ccc(-c4cnc([C@@H]5CCCN5C(=O)[C@@H](NC(=O)OC)C(C)C)[nH]4)cc2N3C)[nH]1)C(C)C	0.007	0.07	0.09	0.3	70	half-life [1]: 1.2 h; AUC [2]: 2.8 µM·h; clearance [5]: 32 mL/min/kg; bioavailability [9]: 69%
COC(=O)N[C@H](C(=O)N1CCC[C@H]1c1ncc(-c2ccc3c(C#N)c4cc(-c5cnc([C@@H]6CCCN6C(=O)[C@@H](NC(=O)OC)C(C)C)[nH]5)ccc4nc3c2)[nH]1)C(C)C						EC50 (Hepatitis C virus [10]): 0.3 nM; EC50 (Hepatitis C virus [11]): 0.01 nM; EC50 (Hepatitis C virus [12]): 1 nM
COC(=O)N[C@H](C(=O)N1CCC[C@H]1c1ncc(-c2ccc3nc4cc(-c5cnc([C@@H]6CCCN6C(=O)[C@@H](NC(=O)OC)C(C)C)[nH]5)ccc4nc3c2)[nH]1)C(C)C	0.06	0.1	0.06	0.2	61	
COC(=O)N[C@H](C(=O)N1CCC[C@H]1c1ncc(-c2ccc3c(c2)C(=O)c2ccc(-c4cnc([C@@H]5CCCN5C(=O)[C@@H](NC(=O)OC)C(C)C)[nH]4)cc2C3=O)[nH]1)C(C)C	0.007	0.7	0.09		35	
C/C=C1/c2ccc(-c3cnc([C@@H]4CCCN4C(=O)[C@@H](NC(=O)OC)C(C)C)[nH]3)cc2Oc2ccc(-c3cnc([C@@H]4CCCN4C(=O)[C@@H](NC(=O)OC)C(C)C)[nH]3)cc21	0.007	0.03	0.06	0.4	9	
COC(=O)N[C@H](C(=O)N1CCC[C@H]1c1ncc(-c2ccc3nc4cc(-c5cnc([C@@H]6CCCN6C(=O)[C@@H](NC(=O)OC)C(C)C)[nH]5)ccc4cc3c2)[nH]1)C(C)C	0.01	0.04	0.05		1050	
CCCC/C=C1/c2ccc(-c3cnc([C@@H]4CCCN4C(=O)[C@@H](NC(=O)OC)C(C)C)[nH]3)cc2Oc2ccc(-c3cnc([C@@H]4CCCN4C(=O)[C@@H](NC(=O)OC)C(C)C)[nH]3)cc21	0.006	0.05	> 0.1	0.4	260	
COC(=O)N[C@H](C(=O)N1CCC[C@H]1c1ncc(-c2ccc3c(c2)NC(=O)c2cc(-c4cnc([C@@H]5CCCN5C(=O)[C@@H](NC(=O)OC)C(C)C)[nH]4)ccc2O3)[nH]1)C(C)C						EC50 (Hepatitis C virus [10]): 950 nM; EC50 (Hepatitis C virus [11]): 40 nM; EC50 (Hepatitis C virus [12]): > 1000 nM
COC(=O)N[C@H](C(=O)N1CCC[C@H]1c1ncc(-c2ccc3c(c2)Oc2ccc(-c4cnc([C@@H]5CCCN5C(=O)[C@@H](NC(=O)OC)C(C)C)[nH]4)cc2N3c2ccccc2)[nH]1)C(C)C						EC50 (Hepatitis C virus [10]): 5 nM; EC50 (Hepatitis C virus [11]): 0.008 nM; EC50 (Hepatitis C virus [12]): 3 nM
COC(=O)N[C@H](C(=O)N1CCC[C@H]1c1ncc(-c2ccc3c(c2)Oc2ccc(-c4cnc([C@@H]5CCCN5C(=O)[C@@H](NC(=O)OC)C(C)C)[nH]4)cc2S3)[nH]1)C(C)C	0.002	0.06	0.04	0.3	21	bioavailability [15]: 25%; half-life [16]: 1.3 h; AUC [17]: 1.1 µM·h; clearance [18]: 15 mL/min/kg
COC(=O)N[C@H](C(=O)N1CCC[C@H]1c1ncc(-c2ccc3c(c2)Oc2ccc(-c4cnc([C@@H]5CCCN5C(=O)[C@@H](NC(=O)OC)C(C)C)[nH]4)cc2C3(C)C)[nH]1)C(C)C	0.005	< 0.02	0.02	0.3	130	half-life [1]: 1.6 h; AUC [2]: 2.3 µM·h; clearance [5]: 19 mL/min/kg; bioavailability [9]: 39%
COC(=O)N[C@H](C(=O)N1CCC[C@H]1c1ncc(-c2ccc3c(c2)C=Nc2ccc(-c4cnc([C@@H]5CCCN5C(=O)[C@@H](NC(=O)OC)C(C)C)[nH]4)cc2O3)[nH]1)C(C)C						EC50 (Hepatitis C virus [10]): 220 nM; EC50 (Hepatitis C virus [11]): 0.06 nM; EC50 (Hepatitis C virus [12]): 55 nM
COC(=O)N[C@H](C(=O)N1CCC[C@H]1c1ncc(-c2ccc3c(c2)Oc2ccc(-c4cnc([C@@H]5CCCN5C(=O)[C@@H](NC(=O)OC)C(C)C)[nH]4)cc2S3(=O)=O)[nH]1)C(C)C	0.06	0.8	> 1	16	2380	
CCC1c2ccc(-c3cnc([C@@H]4CCCN4C(=O)[C@@H](NC(=O)OC)C(C)C)[nH]3)cc2Oc2ccc(-c3cnc([C@@H]4CCCN4C(=O)[C@@H](NC(=O)OC)C(C)C)[nH]3)cc21 (stereo partly drawn)	0.004	0.005	0.02	0.07	24	
COC(=O)N[C@H](C(=O)N1CCC[C@H]1c1nc(-c2ccc3c(c2)O[C@@H](c2ccccc2)n2c-3cc3cc(-c4c[nH]c([C@@H]5CCCN5C(=O)[C@@H](NC(=O)OC)C(C)C)n4)ccc32)c[nH]1)C(C)C [ELBASVIR]						EC50 (Hepatitis C virus [19]): 0.003 nM; EC50 (Hepatitis C virus [20]): 0.004 nM; EC50 (Hepatitis C virus [21]): 2 nM; EC50 (Hepatitis C virus [22]): 0.02 nM; EC50 (Hepatitis C virus [23]): 0.003 nM
